Values of other authors, collected in patent publication EP3272348A1, “PHARMACEUTICAL COMPOSITION COMPRISING IDELALISIB” (LEK Pharmaceuticals d.d., priority 2016, dated 2018).
Where two headings read alike, the source gives them in different places.

What was measured:
[1] = not given; remark: listed apart in the source

Q: Which results are given for `CC[C@H](Nc1ncnc2[nH]cnc12)c1nc2cccc(F)c2c(=O)n1-c1ccccc1` [Crystalline idelalisib, (S)-2-(I-(9H-purin-6-ylamino)propyl)-5-fluoro-3-phenyl-quinazolin-4(3H)-one]?
A: solubility (pH 1.2): soluble; solubility (pH 7): not soluble; permeability [1]: high permeability
